Test results: patent US11753407B2, “Compounds for treating spinal muscular atrophy” (PTC Therapeutics, Inc., priority 2012, dated 2023)

Experiments:
[1] = tested on: SMN2 minigene mRNA (SMN2-A minigene) in HEK293H cells; assay: SMN2 minigene mRNA splicing RT-qPCR assay in cultured cells; type: cell-based, human; details: Homo sapiens, HEK293-H; concentration increasing full length SMN2 mRNA 1.5-fold relative to vehicle-treated cells; HEK293H cells with SMN2-A minigene, 24 hours, 7-point concentration data; read-out: EC1.5x for production of full length SMN2 mRNA
In short: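 EC1.5× values derive from a 24 h treatment of SMN2-A minigene HEK293H cells and GAPDH-normalized RT-qPCR of exon 7-included minigene mRNA relative to vehicle-treated cells.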

[2] = tested on: Smn protein in SMA patient fibroblast cells (GM03813); assay: Smn protein assay in cultured cells (SMN HTRF); type: cell-based, human; details: SMA patient fibroblast cells, 48 hours; for maximum fold (Fold) increase of Smn protein: 7-point concentration data, fold relative to vehicle control; for EC1.5x for Smn protein expression: 7-point concentration curve, SMN HTRF, concentration producing 1.5 times Smn protein vs DMSO vehicle control
In short: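 Cells were cultured 72 h, seeded at 5,000/well and dosed with seven concentrations (3.16-fold apart) for 48 h. HTRF on lysates, read at 665 and 620 nm, gave blank-corrected ΔF values relative to DMSO. Potency is reported as EC1.5×, efficacy as maximal fold Smn increase.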

melting point [°C] | Compound | EC (1.5-fold increase) [1] [µM] | maximum fold (Fold) increase of Smn protein [2] | EC1.5x for Smn protein expression [2]
202 to 206 | COc1ccc(-c2ccc3nc(N4CCNCC4)cc(=O)n3c2)cc1F [Cpd 220, 7-(3-fluoro-4-methoxyphenyl)-2-(piperazin-1-yl)-4H-pyrido[1,2-a]pyrimidin-4-one] | 0.3 to 1 | ** (a fold increase between >1.2 and ≤1.35 is indicated by two stars (**)) | 
221 to 224 | COc1ccc(-c2cc(=O)n3cc(OC4CCNCC4)ccc3n2)cc1OC [Cpd 237, 2-(3,4-dimethoxyphenyl)-7-(piperidin-4-yloxy)-4H-pyrido[1,2-a]pyrimidin-4-one] | 1 to 3 | *** (a fold increase between >1.35 and ≤1.5 is indicated by three stars (***)) | 
143 to 149 | COc1ccc(-c2cc(=O)n3cc(N(C)[C@@H]4CCN(C)C4)ccc3n2)cc1F [Cpd 239, 2-(3-fluoro-4-methoxyphenyl)-7-{methyl[(3R)-1-methylpyrrolidin-3-yl]amino}-4H-pyrido[1,2-a]pyrimidin-4-one] | 1 to 3 | * (A maximum fold increase of ≤1.2 is indicated by one star (*)) | 
146 to 150 | COc1ccc(-c2cc(=O)n3cc(C4=CCCNC4)ccc3n2)cc1OC [Cpd 263, 2-(3,4-dimethoxyphenyl)-7-(1,2,5,6-tetrahydropyridin-3-yl)-4H-pyrido[1,2-a]pyrimidin-4-one] | 0.3 to 1 | **** (a fold increase between >1.5 and ≤1.65 is indicated by four stars (****)) | *** (an EC1.5× between >0.3 μM and ≤1 μM is indicated by three stars (***))
268 to 283 | COc1ccc(-c2ccc3nc(N4CCC(N)CC4)cc(=O)n3c2)cc1F [Cpd 276, 2-(4-aminopiperidin-1-yl)-7-(3-fluoro-4-methoxyphenyl)-4H-pyrido[1,2-a]pyrimidin-4-one] | 0.3 to 1 | * (A maximum fold increase of ≤1.2 is indicated by one star (*)) | 
207 to 209 | Cc1nc2c(F)cc(-c3cc(=O)n4cc(N5CCN[C@@H](C)C5)ccc4n3)cc2o1 [Cpd 306, 2-(4-fluoro-2-methyl-1,3-benzoxazol-6-yl)-7-[(3S)-3-methylpiperazin-1-yl]-4H-pyrido[1,2-a]pyrimidin-4-one] | < 0.1 | ***** (a fold increase >1.65 is indicated by five stars (*****)) | **** (an EC1.5x≤0.3 μM is indicated by four stars (****))
115 to 117 | Cc1nc2ccc(-c3cc(=O)n4cc(N5CCN[C@@H](C)C5)ccc4c3)cc2o1 [Cpd 322, 2-(2-methyl-1,3-benzoxazol-6-yl)-7-[(3S)-3-methylpiperazin-1-yl]-4H-quinolizin-4-one] | < 0.1 | **** (a fold increase between >1.5 and ≤1.65 is indicated by four stars (****)) | *** (an EC1.5× between >0.3 μM and ≤1 μM is indicated by three stars (***))
230 to 235 | Cc1nc2ccc(-c3cc(=O)n4nc(C5CCNCC5)ccc4n3)cc2s1.O=C(O)C(F)(F)F [Cpd 380, 2-(2-methyl-1,3-benzothiazol-6-yl)-7-(piperidin-4-yl)-4H-pyrimido[1,2-b]pyridazin-4-one trifluoroacetate (1:1)] | 0.1 to 0.3 | **** (a fold increase between >1.5 and ≤1.65 is indicated by four stars (****)) | *** (an EC1.5× between >0.3 μM and ≤1 μM is indicated by three stars (***))
178 to 184 | CCCNC1CCN(c2cc(C)c3nc(-c4ccc(OC)c(OC)c4)cc(=O)n3c2)CC1 [Cpd 407, 2-(3,4-dimethoxyphenyl)-9-methyl-7-[4-(propylamino)piperidin-1-yl]-4H-pyrido[1,2-a]pyrimidin-4-one] | < 0.1 | *** (a fold increase between >1.35 and ≤1.5 is indicated by three stars (***)) | 
198 to 200 | Cc1cc2cc(-c3cc(=O)n4cc(N5CCNCC5)ccc4n3)oc2c(C)n1 [Cpd 486, 2-(5,7-dimethylfuro[2,3-c]pyridin-2-yl)-7-(piperazin-1-yl)-4H-pyrido[1,2-a]pyrimidin-4-one] | < 0.1 | **** (a fold increase between >1.5 and ≤1.65 is indicated by four stars (****)) | **** (an EC1.5x≤0.3 μM is indicated by four stars (****))
268 to 270 | Cn1ncc2cc(-c3cc(=O)n4cc(C5CCNCC5)ccc4n3)ccc21 [Cpd 603, 2-(1-methyl-1H-indazol-5-yl)-7-(piperidin-4-yl)-4H-pyrido[1,2-a]pyrimidin-4-one] | 0.1 to 0.3 | ***** (a fold increase >1.65 is indicated by five stars (*****)) | *** (an EC1.5× between >0.3 μM and ≤1 μM is indicated by three stars (***))
242 to 244 | COc1nc(C)cn2nc(-c3cc(=O)n4cc(N5CCN(C)CC5)ccc4n3)cc12 [Cpd 625, 2-(4-methoxy-6-methylpyrazolo[1,5-a]pyrazin-2-yl)-7-(4-methylpiperazin-1-yl)-4H-pyrido[1,2-a]pyrimidin-4-one] | 1 to 3 | ** (a fold increase between >1.2 and ≤1.35 is indicated by two stars (**)) | 
280 to 283 | Cc1cn2nc(-c3cc(=O)n4cc(N5CCN(C)CC5)ccc4n3)cc2c(O)n1 [Cpd 626, 2-(4-hydroxy-6-methylpyrazolo[1,5-a]pyrazin-2-yl)-7-(4-methylpiperazin-1-yl)-4H-pyrido[1,2-a]pyrimidin-4-one] | 0.3 to 1 | ***** (a fold increase >1.65 is indicated by five stars (*****)) | ** (an EC1.5× between >1 μM and ≤3 μM is indicated by two stars (**))

Compound | melting point [°C] | EC (1.5-fold increase) [1] [µM] | maximum fold (Fold) increase of Smn protein [2] | EC1.5x for Smn protein expression [2]
COc1ccc(-c2cc(=O)n3cc(C4=CCNCC4)ccc3c2)cc1OC [Cpd 245, 2-(3,4-dimethoxyphenyl)-7-(1,2,3,6-tetrahydropyridin-4-yl)-4H-quinolizin-4-one] | 174 to 176 | 0.3 to 1 | ** (a fold increase between >1.2 and ≤1.35 is indicated by two stars (**)) | 
COc1ccc(-c2cc(=O)n3cc(C4=CCN(C)CC4)ccc3c2)cc1OC [Cpd 249, 2-(3,4-dimethoxyphenyl)-7-(1-methyl-1,2,3,6-tetrahydropyridin-4-yl)-4H-quinolizin-4-one] | 194 to 196 | 0.3 to 1 | * (A maximum fold increase of ≤1.2 is indicated by one star (*)) | 
COc1ccc(-c2ccc3nc(C4=CCNCC4)cc(=O)n3c2)cc1F [Cpd 294, 7-(3-fluoro-4-methoxyphenyl)-2-(1,2,3,6-tetrahydropyridin-4-yl)-4H-pyrido[1,2-a]pyrimidin-4-one] | 188 to 192 | < 0.1 | *** (a fold increase between >1.35 and ≤1.5 is indicated by three stars (***)) | * (An EC1.5× for Smn protein expression between >3 μM and ≤10 μM is indicated by one star (*))
Cc1cn2nc(-c3cc(=O)n4cc(C5=CCNCC5)ccc4n3)cc2c(C)n1 [Cpd 342, 2-(4,6-dimethylpyrazolo[1,5-a]pyrazin-2-yl)-7-(1,2,3,6-tetrahydropyridin-4-yl)-4H-pyrido[1,2-a]pyrimidin-4-one] | 207 to 210 | < 0.1 | ***** (a fold increase >1.65 is indicated by five stars (*****)) | **** (an EC1.5x≤0.3 μM is indicated by four stars (****))
COc1ccc(-c2cc(=O)n3nc(C4=CCNCC4)ccc3n2)cc1OC [Cpd 398, 2-(3,4-dimethoxyphenyl)-7-(1,2,3,6-tetrahydropyridin-4-yl)-4H-pyrimido[1,2-b]pyridazin-4-one] | 195 to 200 | 0.3 to 1 | ***** (a fold increase >1.65 is indicated by five stars (*****)) | ** (an EC1.5× between >1 μM and ≤3 μM is indicated by two stars (**))
COc1ccc(-c2cc(=O)n3cc(C4=CCNCC4)ncc3n2)cc1OC [Cpd 402, 2-(3,4-dimethoxyphenyl)-7-(1,2,3,6-tetrahydropyridin-4-yl)-4H-pyrazino[1,2-a]pyrimidin-4-one] | 205 to 208 | < 0.1 | **** (a fold increase between >1.5 and ≤1.65 is indicated by four stars (****)) | ** (an EC1.5× between >1 μM and ≤3 μM is indicated by two stars (**))
Cn1ncc2cc(-c3cc(=O)n4cc(C5=CCNCC5)ccc4n3)ccc21 [Cpd 443, 2-(1-methyl-1H-indazol-5-yl)-7-(1,2,3,6-tetrahydropyridin-4-yl)-4H-pyrido[1,2-a]pyrimidin-4-one] | 200 to 203 | < 0.1 | ***** (a fold increase >1.65 is indicated by five stars (*****)) | **** (an EC1.5x≤0.3 μM is indicated by four stars (****))
